How the values were obtained:
[1] = system: HIV Bal strain; assay: HIV gag mRNA in infected MDM by RT-PCR / real time RT-PCR; assay type: cell-based; conditions: 12 days after infection
Experimental: HIV Infection: After 2 h incubation with or without the reagents described above, the cells were infected with equal amounts of cell-free HIV based on p24 antigen content (20 ng/10^6 cells) overnight, and then washed to remove unbound virus. Fresh media containing SP and/or CP-96,345 or anti-SP antibody were added to the MDM as described above. The culture media and the reagents were replaced twice weekly. The culture supernatants were harvested for HIV reverse transcriptase (RT) activity determinations. After HIV infection, the MDM were incubated for 8 to 12 days. At the termination of the experiments, cellular RNA was extracted for assessment of HIV gag gene expression using RT-PCR or real time RT-PCR assays.
Total RNA was isolated from human peripheral blood MDM (10^6 cells) using Tri-Reagent (Molecular Research Center, Cincinnati, Ohio) as we previously reported (16).
Reverse transcription: Total RNA (1 μg) was reverse transcribed using Reverse Transcription System (Promega, Madison, Wis.) with the specific primers (antisense) for HIV gag (5′-[…]-[…]-3′; SEQ ID NO: 1) (27) or CCR5 (5′-[…]-3′; SEQ ID NO: 2) (32) for 1 h at 42° C. RT reactions was terminated by incubating the reaction mixture at 99° C. for 5 min and then kept at 4° C. The resulting cDNA was used as a template for PCR amplification or real time PCR quantification. […]

[2] = system: TNF-α; assay: LPS-stimulated TNF-α production in MDM by ELISA; assay type: cell-based, human; conditions: 10^−9 to 10^−7M; LPS 1 ng/ml; 24 h
Experimental: (§1) In order to determine the role of CP-96,345 in the regulation of cytokine secretion, 7-day-cultured MDM were incubated with or without CP-96,345 (10^−9 to 10^−7M) and/or LPS (1 ng/ml) for 24 h. The culture supernatants were collected to determine TNF-A and IL-6 levels by ELISA. The ELISA kits were purchased from Endogen, Inc. (Woburn, Mass.).

[3] = system: HIV Bal strain; assay: HIV-induced syncytia formation in MDM; assay type: cell-based; conditions: 10^−7M; 12 days after infection; light microscope
Experimental: Syncytia formation: To study the effect of neuropeptide antagonists on HIV-induced syncytia formation in MDM, 7-day-cultured macrophages were incubated in the presence or absence of CP-96,345 (10^−7M) for 2 h and then infected with HIV Bal strain. MDM which were neither incubated with CP-96,345 nor infected with HIV were used as a cell culture control. The morphology of HIV-induced syncytia formation was observed and photographed by a light microscopy (X 400) 12 days after HIV infection.

[4] = system: IL-6; assay: LPS-stimulated IL-6 production in MDM by ELISA; assay type: cell-based, human; conditions: 10^−9 to 10^−7M; LPS 1 ng/ml; 24 h
Experimental: as §1

[5] = system: SP mRNA; assay: SP mRNA expression in MDM by real-time RT-PCR; assay type: cell-based, human; conditions: 4 hours; percentage of untreated MDM
Experimental: FIG. 17. A graph showing the effect of CP-96,345 on SP mRNA expression in MDM. The MDM were incubated with (+) or without (−) the NK-1R antagonist at the indicated concentration for 4 hours. The SP mRNA levels were determined by a real-time RT-PCR. The SP mRNA levels in the CP-96,345 treated MDM are expressed as a percentage of that in untreated MDM which are defined as 100%.
The effect of CP-96,345 on SP mRNA expression in MDM was also determined. The MDM were incubated with (+) or without (−) the NK-1R antagonist at the indicated concentration for 4 hours. The SP mRNA levels were determined by a real-time RT-PCR.

Structure (SMILES): COc1ccccc1CN[C@H]1C2CCN(CC2)[C@H]1C(c1ccccc1)c1ccccc1 [CP-96,345, [2S,3S)-cis-2-(diphenylmethyl)-N-[(2-methoxyphenyl)-methyl]-1-azabicyclo [[2.2.2]-octan-3-amine]]
- HIV gag mRNA expression (RT-PCR) ([1]; 10^−11 to 10^−7 M): potently inhibited
- HIV gag gene mRNA copy numbers (real time RT-PCR) ([1]; same samples): significantly suppress
- LPS-stimulated TNF-A production in MDM [2]: attenuated
- giant syncytia formation induced by HIV Bal strain infection [3]: failed to develop the giant syncytia
- IL-6 production in MDM [4]: not affected
- SP mRNA expression in MDM (real-time RT-PCR) [5]: significantly inhibited
